Assay results reported in patent publication US8637496B2, “Compounds having a monogalactosyldiacylglycerol synthase inhibitory activity as herbicide or algaecide, herbicide and algaecide compositions” (Commissariat a l'Energie Atomique, priority 2007, dated 2014).
Read-outs that look alike come from different tables or passages of the source.

Legend:
[1] = target: T1, spinach recombinant MGDG synthase (soMGD) (Spinacia oleracea, UniProt Q9SM44); assay: MGDG synthase enzymatic assay of recombinant spinach MGD protein in mixed micelles; type: biochemical; details: recombinant enzyme expressed in E. coli, FIG. 2, read-out: IC50, inhibition of spinach recombinant MGDG synthase (soMGD) activity
T1 construct: The cDNA fragments corresponding to the mature form of spinach MGDG synthase, soMGD1; made in house; host or cells: Escherichia coli BL21-DE3, pET-3a (NdeI-BamHI)
T1 sequence (Q9SM44 99-522): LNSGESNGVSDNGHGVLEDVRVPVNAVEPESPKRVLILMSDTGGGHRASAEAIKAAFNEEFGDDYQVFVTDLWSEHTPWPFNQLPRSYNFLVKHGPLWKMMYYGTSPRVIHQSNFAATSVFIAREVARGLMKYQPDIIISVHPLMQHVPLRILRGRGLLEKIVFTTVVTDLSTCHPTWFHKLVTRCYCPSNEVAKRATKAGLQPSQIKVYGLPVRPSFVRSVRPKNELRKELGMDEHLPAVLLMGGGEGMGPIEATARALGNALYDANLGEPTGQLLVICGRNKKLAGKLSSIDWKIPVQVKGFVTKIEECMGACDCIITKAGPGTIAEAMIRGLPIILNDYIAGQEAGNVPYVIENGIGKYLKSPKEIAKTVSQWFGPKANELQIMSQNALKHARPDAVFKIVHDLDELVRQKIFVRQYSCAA
Source text: The cDNA fragments corresponding to the mature form of spinach MGDG synthase, soMGD1 [accession number CAB56218], and from the three isoforms that are present in Arabidopsis, i.e. atMGD1 [accession number BAB12042], atMGD2 [accession number T52269] and atMGD3 [accession number BAB12041] were inserted into the pET-3a expression vector from Novagen, as described by Miège C. et al., Eur. J. Biochem, 1999, 265, 990-1001 and Awai K. et al., Proc. Natl. Acad. Sci. U.S.A., 2001, 98, 10960-10965. All MGD sequences used in this study were inserted in NdeI-BamHI cloning site of the pET-3a vector. Induction of recombinant proteins was achieved following the pET expression system procedure. Isolated colonies of transfected Escherichia coli (BL21-DE3) were inoculated in LB medium (2.5 ml, 100 μg/ml carbenicillin) and grown at 37° C. When OD600 reached 0.5, the cell suspension was transferred to 15 ml of LB medium ([…] carbenicillin) and grown at 37° C. until OD600 reached 0.5. […]
The MGDG synthase enzymatic assay was achieved as described by Maréchal E. et al., J. Biol. Chem., 1995, 270, 5714-5722. […] J. Biochem. Physiol., 1959, 37, 911-917 and the radioactivity of the [^14C]-labelled MGDG ultimately produced, determined by liquid scintillation counting. […]

[2] = target: T2, MGDG synthase in isolated spinach chloroplast envelope membranes (Spinacia oleracea, UniProt Q9SM44); assay: MGDG synthase activity in envelope membrane fractions isolated from spinach chloroplasts; type: biochemical
T2 construct: envelope membranes purified from the lysate by sucrose centrifugation gradient; from tissue; host or cells: envelope membranes of chloroplasts from spinach leaves
T2 sequence (Q9SM44 99-522): T1 sequence (Q9SM44 99-522)
Procedure, shortened: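 Envelope membranes purified from Percoll-isolated spinach chloroplasts by hypotonic lysis and sucrose gradient; MGDG synthase activity measured per published protocol.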

[3] = tested on: Chlamydomonas reinhardtii; assay: Chlamydomonas reinhardtii growth assay; type: cell-based; details: day three (d=3)
Experimental: An axenic suspension of Chlamydomonas reinhardtii (10 μl) is introduced in a liquid TAP medium (Tris-Acetate-Phosphate medium, as described by Rochaix et al., (The Molecular Biology of Chloroplasts and Mitochondria in Chlamydomeonas; Advances in Photosynthesis, (1998) Vol. 7. Kluwer Academic Publishers, Dordrecht, The Netherlands) with or without compound according to the invention. The compounds to be tested have been solubilized in dimethylsulfoxide (DMSO) and supplied directly in the growth medium, at concentrations ranging from 0 to 200 μM. Final concentration of DMSO in medium was 10%. Chlamydomonas suspensions were then grown at 20° C., under continuous light (50 μE.m^−2.s^−1). Growth was assessed by counting the algae in a 40 μl aliquot using a Malassez cell and examining the cell vitality by standard microscopic methods.
Control herbicide is Triclosan.

[4] = Table 1, obtained in the same manner as FIG. 4, read-out: Inhibitory effect on MGDG synthesis in isolated spinach chloroplast envelope membranes

| Structure (SMILES) | IC50 [1] | IC50 [2, 4] | IC50 ([2]; spinach chloroplast envelope membranes, FIG. 4, read-out: IC50, MGDG synthase activity in envelope membranes that surround chloroplasts) | morphology of Chlamydomonas when incubated with compound (FIG. 6) [3] |
| --- | --- | --- | --- | --- |
| O=C(OCCN(Cc1ccccc1)Cc1ccccc1)N1CCC(n2c(=O)[nH]c3ccccc32)CC1 [Compound 11, 2-(dibenzylamino)ethyl 4-(1,2-dihydro-2-oxobenzo[d]imidazol-3-yl)piperidine-1-carboxylate] |  | 15 µM |  | fails to divide |
| O=C(OC1CN(C(c2ccccc2)c2ccccc2)C1)N1CCC(n2c(=O)[nH]c3ccccc32)CC1 [Compound 13, 1-benzhydrylazetidin-3-yl 4-(1,2-dihydro-2-oxobenzo[d]imidazol-3-yl)piperidine-1-carboxylate] |  | 100 to 500 µM |  | fails to divide |
| O=c1[nH]c2ccccc2n1C1CCN(C(=S)OCCOCc2ccccc2)CC1 [Compound 20, O-2-(benzyloxy)ethyl 4-(1,2-dihydro-2-oxobenzo[d]imidazol-3-yl)piperidine-1-carbothioate] |  | 100 to 500 µM |  | fails to divide |
| CC(C)(C)OC(=O)N(Cc1ccccc1)[C@H](COC(=O)N1CCC(n2c(=O)[nH]c3ccccc32)CC1)Cc1ccccc1 [Compound 86, (S)-2-(benzyl(tert-butoxycarbonyl)amino)-3-phenylpropyl 4-(2-oxo-2,3-dihydro-1H-benzo[d]imidazol-1-yl)piperidine-1-carboxylate] |  | 5 µM |  |  |

More lines, main results first:

| IC50 [1] | IC50 [2, 4] | IC50 ([2]; spinach chloroplast envelope membranes, FIG. 4, read-out: IC50, MGDG synthase activity in envelope membranes that surround chloroplasts) | Structure (SMILES) | morphology of Chlamydomonas when incubated with compound (FIG. 6) [3] |
| --- | --- | --- | --- | --- |
| 45 µM | 45 µM | 10 µM | C[C@@H](COC(=O)N1CCC(n2c(=O)[nH]c3ccccc32)CC1)N(Cc1ccccc1)Cc1ccccc1 [Compound 7, (S)-2-(dibenzylamino)propyl 4-(1,2-dihydro-2-oxobenzo[d]imidazol-3-yl)piperidine-1-carboxylate] |  |
| 100 µM | 10 µM |  | O=C(OC[C@H](Cc1ccccc1)N(Cc1ccccc1)Cc1ccccc1)N1CCC(n2c(=O)[nH]c3ccccc32)CC1 [Compound 8, (S)-2-(dibenzylamino)-3-phenylpropyl 4-(1,2-dihydro-2-oxobenzo[d]imidazol-3-yl)piperidine-1-carboxylate] |  |
|  | 45 µM |  | CC(C)C[C@@H](COC(=O)N1CCC(n2c(=O)[nH]c3ccccc32)CC1)NCc1ccccc1 [Compound 87, (S)-2-(benzylamino)-4-methylpentyl 4-(2-oxo-2,3-dihydro-1H-benzo[d]imidazol-1-yl)piperidine-1-carboxylate] |  |
|  | 60 µM |  | O=C(OCC(Cc1ccccc1)NCc1ccccc1)N1CCC(n2c(=O)[nH]c3ccccc32)CC1 (stereo not drawn) [Compound 88, 2-(benzylamino)-3-phenylpropyl 4-(2-oxo-2,3-dihydro-1H-benzo[d]imidazol-1-yl)piperidine-1-carboxylate] |  |
|  | 40 µM |  | CC(COC(=O)N1CCC(n2c(=O)[nH]c3ccccc32)CC1)N(CCCOCc1ccccc1)Cc1ccccc1 (stereo not drawn) [Compound 89, 2-(benzyl(3-(benzyloxy)propyl)amino)propyl 4-(2-oxo-2,3-dihydro-1H-benzo[d]imidazol-1-yl)piperidine-1-carboxylate] |  |
